The assay addresses IgE-Tb / FcεRIα-Y131A-AF488 (Homo sapiens, UniProt P01854). The assay is described as follows: IgE-Tb / FcεRIα-Y131A-AF488 FRET assay (protocol for examples 1 to 233). It counts as binding. Particulars: examples 1 to 233: 5 nM IgE-Tb, 25 nM FcεRIα-Y131A-AF488, incubated 2 hours at room temperature; read-out: Y131A FRET IC50 range. Put shortly: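 Compounds (top final concentration usually 10 μM, 3-fold, 10 points, 2% DMSO) incubated 2 h at room temperature with IgE-Tb (5 nM) and FcεRIα-Y131A-AF488 (25 nM). Background from 200 nM unlabelled receptor subtracted; FRET ratio 520/495 nm after 330 nm excitation gave percent inhibition, fitted four-parameter for IC50.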

In patent US12018021B2 (UCB Biopharma SRL, priority 2018, dated 2024) one finds IC50 data, which are given here for 20 compounds.

Where only a bound is given, the exact number is not on record here.

IgE-Tb / FcεRIα-Y131A-AF488, sequence (P01854 1-427 limits assumed, stated change not applied): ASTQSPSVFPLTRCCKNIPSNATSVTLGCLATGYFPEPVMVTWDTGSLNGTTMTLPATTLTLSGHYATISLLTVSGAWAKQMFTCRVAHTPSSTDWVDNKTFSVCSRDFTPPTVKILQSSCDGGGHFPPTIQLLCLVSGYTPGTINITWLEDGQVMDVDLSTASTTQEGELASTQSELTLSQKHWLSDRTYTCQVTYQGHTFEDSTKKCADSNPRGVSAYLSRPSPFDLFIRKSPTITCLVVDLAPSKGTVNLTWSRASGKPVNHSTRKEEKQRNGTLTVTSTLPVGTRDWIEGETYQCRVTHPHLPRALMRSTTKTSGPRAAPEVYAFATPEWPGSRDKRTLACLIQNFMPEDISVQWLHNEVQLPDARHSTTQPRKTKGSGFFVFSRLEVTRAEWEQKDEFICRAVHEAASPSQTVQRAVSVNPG

Usually IC50 stands for the point on the concentration scale where inhibition reaches its midpoint. With `O=C(NCC1CC1)c1c(NC(=O)C2CC2)sc2c1CC(c1cc[nH]n1)CC2` (centres unmarked) [Example 100, 2-(Cyclopropanecarbonylamino)-N-(cyclopropylmethyl)-5-(1H-pyrazol-3-yl)-4,5,6,7-tetrahydrobenzothiophene-3-carboxamide], the IC50 was less than 1 µM.
With `CCOC(=O)c1c(NC(=O)C2CC2)sc2c1CCCC2O` (centres unmarked) [Example 103, Ethyl 2-(cyclopropanecarbonylamino)-7-hydroxy-4,5,6,7-tetrahydrobenzothiophene-3-carboxylate] the figure was 10 to 50 µM; with `N#Cc1ncn([C@H]2CCc3sc(NC(=O)C4CC4)c(C(=O)NCC4CC4)c3C2)c1N` [Example 104, (5S)-5-(5-Amino-4-cyano-imidazol-1-yl)-2-(cyclopropanecarbonylamino)-N-(cyclopropylmethyl)-4,5,6,7-tetrahydrobenzothiophene-3-carboxamide], less than 1 µM.
With `Cc1cc(Nc2nncn2[C@H]2CCc3sc(NC(=O)C4CC4)c(C(=O)NCC4CC4)c3C2)n(C)n1` [Example 106, (5S)-2-(Cyclopropanecarbonylamino)-N-(cyclopropylmethyl)-5-[3-[(2,5-dimethylpyrazol-3-yl)amino]-1,2,4-triazol-4-yl]-4,5,6,7-tetrahydrobenzothiophene-3-carboxamide] the figure was less than 1 µM.
For `Cc1cc(-n2cnnc2N[C@H]2CCc3sc(NC(=O)C4CC4)c(C(=O)NCC4CC4)c3C2)n(C)n1` [Example 107, (5S)-2-(Cyclopropanecarbonylamino)-N-(cyclopropylmethyl)-5-[[4-(2,5-dimethylpyrazol-3-yl)-1,2,4-triazol-3-yl]amino]-4,5,6,7-tetrahydrobenzothiophene-3-carboxamide], the IC50 is 1 to 10 µM.
For the compound `Cc1cc(Nc2nncn2[C@H]2CCc3sc(NC(=O)C4CC4)c(C(=O)NCC(C)C)c3C2)n(C)n1` [Example 108, (5S)-2-(Cyclopropanecarbonylamino)-5-[3-[(2,5-dimethylpyrazol-3-yl)amino]-1,2,4-triazol-4-yl]-N-isobutyl-4,5,6,7-tetrahydrobenzothiophene-3-carboxamide], the IC50 is less than 1 µM.
As for `NC1CCc2sc(NC(=O)C3CC3)c(C(=O)NCC3CC3)c2C1` (centres unmarked) [Example 109, 5-Amino-2-(cyclopropanecarbonylamino)-N-(cyclopropylmethyl)-4,5,6,7-tetrahydrobenzothiophene-3-carboxamide], the half-inhibitory concentration (IC50) is 10 to 50 µM.
With `N#CN=C(Nc1ccccc1)NC1CCc2sc(NC(=O)C3CC3)c(C(=O)NCC3CC3)c2C1` (centres unmarked) [Example 110, 5-[[N′-Cyano-N-phenyl-carbamimidoyl]amino]-2-(cyclopropanecarbonylamino)-N-(cyclopropylmethyl)-4,5,6,7-tetrahydrobenzothiophene-3-carboxamide] the figure was less than 1 µM; with `CC1(CNc2nncn2[C@H]2CCc3sc(NC(=O)C4CC4)c(C(=O)NCC4CC4)c3C2)CC1` [Example 112, (5S)-2-(Cyclopropanecarbonylamino)-N-(cyclopropylmethyl)-5-[3-[(1-methylcyclopropyl)methylamino]-1,2,4-triazol-4-yl]-4,5,6,7-tetrahydrobenzothiophene-3-carboxamide], less than 1 µM; with `CC(=O)Nc1cncn1[C@H]1CCc2sc(NC(=O)C3CC3)c(C(=O)NCC3CC3)c2C1` [Example 113, (5S)-5-(5-Acetamidoimidazol-1-yl)-2-(cyclopropanecarbonylamino)-N-(cyclopropylmethyl)-4,5,6,7-tetrahydrobenzothiophene-3-carboxamide], less than 1 µM.
With `O=C(NCC1CC1)c1c(NC(=O)C2CC2)sc2c1C[C@@H](n1cnnc1Nc1ccncc1)CC2` [Example 115, (5S)-2-(Cyclopropanecarbonylamino)-N-(cyclopropylmethyl)-5-[3-(4-pyridylamino)-1,2,4-triazo-4-yl]-4,5,6,7-tetrahydrobenzothiophene-3-carboxamide] the figure was less than 1 µM; with `COc1ccc(NC(=NC#N)NC2CCc3sc(NC(=O)C4CC4)c(C(=O)NCC4CC4)c3C2)cc1OC` (centres unmarked) [Example 116, 5-[[N′-Cyano-N-(3,4-dimethoxyphenyl)carbamimidoyl]amino]-2-(cyclopropanecarbonylamino)-N-(cyclopropylmethyl)-4,5,6,7-tetrahydrobenzothiophene-3-carboxamide], less than 1 µM.
With `CCOC(=O)c1ncn([C@H]2CCc3sc(NC(=O)C4CC4)c(C(=O)NCC4CC4)c3C2)c1N` [Example 117, Ethyl 5-amino-1-[(5S)-2-(cyclopropanecarbonylamino)-3-(cyclopropylmethylcarbamoyl)-4,5,6,7-tetrahydrobenzothiophen-5-yl]imidazole-4-carboxylate] the figure was less than 1 µM; with `O=C(NCC1CC1)c1c(NC(=O)C2CC2)sc2c1CC(Nc1noc(=O)[nH]1)CC2` (centres unmarked) [Example 119, 2-(Cyclopropanecarbonylamino)-N-(cyclopropylmethyl)-5-[(5-oxo-4H-1,2,4-oxadiazol-3-yl)amino]-4,5,6,7-tetrahydrobenzothiophene-3-carboxamide], less than 1 µM; with `CCNc1c(NC2CCc3sc(NC(=O)C4CC4)c(C(=O)NCC4CC4)c3C2)c(=O)c1=O` (centres unmarked) [Example 120, 2-(Cyclopropanecarbonylamino)-N-(cyclopropylmethyl)-5-[[2-(ethylamino)-3,4-dioxo-cyclobuten-1-yl]amino]-4,5,6,7-tetrahydrobenzothiophene-3-carboxamide], less than 1 µM.
For the compound `N#CN=C(NCC(F)(F)F)NC1CCc2sc(NC(=O)C3CC3)c(C(=O)NCC3CC3)c2C1` (centres unmarked) [Example 121, 5-[[N′-cyano-N-(2,2,2-trifluoroethyl)carbamimidoyl]amino]-2-(cyclopropanecarbonylamino)-N-(cyclopropylmethyl)-4,5,6,7-tetrahydrobenzothiophene-3-carboxamide], the concentration for half-maximal inhibition (IC50) is less than 1 µM.
Turning to `CCNc1nncn1[C@H]1CCc2sc(NC(=O)C3CC3)c(C(=O)NCC3CC3)c2C1` [Example 122, (5S)-2-(cyclopropanecarbonylamino)-N-(cyclopropylmethyl)-5-[3-(ethylamino)-1,2,4-triazol-4-yl]-4,5,6,7-tetrahydrobenzothiophene-3-carboxamide], the IC50 is less than 1 µM.
On to `CCNC(=N[N+](=O)[O-])NC1CCc2sc(NC(=O)C3CC3)c(C(=O)NCC3CC3)c2C1` (centres unmarked) [Example 123, 2-(cyclopropanecarbonylamino)-N-(cyclopropylmethyl)-5-[(N-ethyl-N′-nitro-carbamimidoyl)amino]-4,5,6,7-tetrahydrobenzothiophene-3-carboxamide], for which the 50% inhibitory concentration (IC50) was less than 1 µM.
Consider `O=C(NCC1CC1)c1c(NC(=O)C2CC2)sc2c1C[C@@H](n1cnnc1Nc1cccnc1)CC2` [Example 124, (5S)-2-(Cyclopropanecarbonylamino)-N-(cyclopropylmethyl)-5-[3-(3-pyridylamino)-1,2,4-triazol-4-yl]-4,5,6,7-tetrahydrobenzothiophene-3-carboxamide], for which the half-inhibitory concentration (IC50) was less than 1 µM.
`O=C(NCC1CC1)c1c(NC(=O)C2CC2)sc2c1C[C@@H](n1cnnc1Nc1ccc[n+]([O-])c1)CC2` [Example 125, (5S)-2-(Cyclopropanecarbonylamino)-N-(cyclopropylmethyl)-5-[3-[(1-oxidopyridin-1-ium-3-yl)amino]-1,2,4-triazol-4-yl]-4,5,6,7-tetrahydrobenzothiophene-3-carboxamide]: the IC50 is less than 1 µM.
